Where two headings read alike, the source gives them in different places.

In assay [1] the test system is IL-6 secretion. Kind of assay: Cell-based IL-6 quantification assay (ELISA, Mesoscale) in LPS-stimulated THP-1 cells. The following applies: THP-1 cells, 16 h, read-out: IL6. Put shortly:
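THP-1 cells stimulated with LPS at 4 μg/mL final and exposed to compounds for 16 h. Supernatant IL-6 measured by Mesoscale ELISA and normalized to CellTiter-Glo cell content. Percent inhibition derived from that ratio.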

Assay [2] deals with MYC mRNA. The assay is described as follows: cMyc RNA quantification assay (QuantiGene) in Raji cells. The assay is classed as cell-based. The following applies: 4 h. In outline:
(§1)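 MV4:11 or Raji cells were treated with a range of compound concentrations for 4 h. MYC mRNA was measured by QuantiGene 2.0, and biological duplicates were averaged and normalized to DMSO vehicle to give percent MYC mRNA.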

The test system of assay [3] is LPS-induced IL-6 production. The assay is described as follows: In-vivo inhibition of LPS-induced IL-6 production. Set-up: species or system Balb/C mice. The settings on record: for ED50 (mg/kg): Table 15, oral gavage 30 min prior to LPS, plasma IL-6 ELISA two hours after LPS challenge, 50% inhibition compared to vehicle. The procedure: Female Balb/C mice, 6 weeks old upon arrival at animal facility, and weighing 18-20 g/mouse were used for this assay. The mice are acclimated in animal facility for 5-7 days prior experiment initiation. Mice were randomly divided into experimental groups to include several doses of test article, and vehicle and dexamethasone controls. Mice were fasted from 12 hours prior to study initiation (dosing), but allowed free access to water. Mice were dosed following study group design by oral gavage 30 min prior to LPS stimulation. Dosing interval time was 1 min/mouse.
Two hours after LPS challenge animals were anesthetized by CO2 inhalation, and blood was sampled via cardiac puncture into EDTA coated tubes and placed on ice. Plasma was separated by centrifugation at 3000 g at 4° C. for 15 min. The separated plasma was divided into aliquots (50 ul/aliquot) and stored at −80° C. until plasma IL-6 ELISA and drug levels were analyzed.

The target in assay [4] is T1, BRD4(BD1) (Homo sapiens, UniProt O60885).
T1 construct: His; made in house
Kind of assay: BRD4 AlphaLisa binding assay (Alphascreen). Put shortly:
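BRD4(BD1) (30 nM) incubated 20 min at room temperature with peptide (200 nM) and compound in 40 mM HEPES pH 7.0, 40 mM NaCl, 1 mM DTT, 0.01% BSA, 0.008% Brij-35, 1.2% DMSO.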

Assay [5] deals with MYC mRNA. The assay is described as follows: cMyc RNA quantification assay (QuantiGene) in MV4:11 cells. The assay is classed as cell-based. The settings on record: read-out: MYC-MV411. Put shortly: as §1
[6] abbreviates: Homo sapiens, THP-1, 16 h, Table 7, LPS 4 μg/mL, normalised to CellTiter-Glo.
Where [7] appears, read: Homo sapiens, Table 7, Raji (Burkitt's lymphoma) cells.
Setting [8] is: Table 6, BRD4(BD1) 30 nM, H4-tetraacetyl peptide 200 nM, read-out: BRD4 Alphascreen IC50.
Setting [9] is: Homo sapiens, THP-1, 16 h, Table 14, LPS.
Where [10] appears, read: Homo sapiens, Table 14, Raji cells.
The mark [11] stands for this setting: Table 14, BRD4 AlphaLisa Binding Assay, read-out: Alpha screen.
The mark [12] stands for this setting: Homo sapiens, MV4-11, 4 h, Table 14, MV4:11 cells.
Where [13] appears, read: Table 7, LPS 4 μg/mL, normalised to CellTiter-Glo.
[14] abbreviates: Table 7, Raji (Burkitt's lymphoma) cells.
Setting [15] is: Table 7, MV4:11 (AML) cells, 4 h.

As for `CCNC(=O)C[C@@H]1N=C(c2ccc(Cl)cc2)c2c(sc(C)c2C)-c2c(C)noc21` [Compound 165, 2-((6S)-4-(4-chlorophenyl)-2,3,9-trimethyl-6H-isoxazolo[4,5-e]thieno[3,2-c]azepin-6-yl)-N-ethylacetamide], the IC50 in assay [1] (setting [6]), in assay [2] (setting [7]) and in assay [4] (setting [8]) was under 0.5 µM throughout. For the same compound, in assay [3] (Mus musculus), the ED50 is 10 to 50 mg/kg.

Turning to `Cc1noc2c1-c1ccc(-c3ccc(N)nc3)cc1C(c1ccc(C(F)(F)F)cc1)=N[C@H]2CC(N)=O` [Compound 206], the IC50 in assay [1] (setting [9]), in assay [2] (setting [10]), in assay [4] (setting [11]) and in assay [5] (setting [12]) was under 0.5 µM in each case.

Consider `Cc1cccc2c1C(c1ccc(Cl)cc1)=NC(CC(N)=O)c1onc(C)c1-2` (stereo not shown) [Compound 128], for which the IC50 in assay [1] (setting [13]), in assay [2] (setting [14]) and in assay [4] (setting [8]) was under 0.5 µM throughout. For the same compound, the “ED50 (mg/kg)” value in assay [3] is on record as “++ (“++” indicates an ED50 of less than 10 mg/kg)”.

For `Cc1cccc2c1C(c1ccc(C#N)cc1)=N[C@@H](CC(N)=O)c1onc(C)c1-2` [Compound 130], the IC50 in assay [1] (setting [13]), in assay [2] (setting [14]), in assay [4] (setting [8]) and in assay [5] (setting [15]) was under 0.5 µM throughout.

Turning to `Cc1cccc2c1C(c1ccc(OC(F)(F)F)cc1)=N[C@@H](CC(N)=O)c1onc(C)c1-2` [Compound 136], the IC50 in assay [1] (setting [13]), in assay [2] (setting [14]), in assay [4] (setting [8]) and in assay [5] (setting [15]) was under 0.5 µM in each case.

Regarding `Cc1noc2c1-c1ccc(F)cc1C(c1ccc(Cl)cc1)=N[C@H]2CC(N)=O` [Compound 210], the IC50 in assay [1] (setting [9]) is under 0.5 µM; in assay [2] (setting [10]) it was 0.5 to 1 µM; in assay [4] (setting [11]) it was under 0.5 µM; in assay [5] (setting [12]), under 0.5 µM.

Take `Cc1noc2c1-c1cccc(Cl)c1C(c1ccc(Cl)cc1)=N[C@H]2CC(N)=O` [Compound 139]: the IC50 in assay [1] (setting [13]), in assay [2] (setting [14]), in assay [4] (setting [8]) and in assay [5] (setting [15]) was under 0.5 µM throughout.

With `CNc1nccc2c1C(c1ccc(Cl)cc1)=N[C@@H](CC(N)=O)c1onc(C)c1-2` [Compound 181, 2-((4S)-6-(4-chlorophenyl)-1-methyl-7-(methylamino)-4H-isoxazolo[5,4-c]pyrido[4,3-e]azepin-4-yl)acetamide], the IC50 is under 0.5 µM in assay [1] (setting [6]); under 0.5 µM in assay [2] (setting [7]); under 0.5 µM in assay [4] (setting [8]); under 0.5 µM in assay [5] (Homo sapiens, MV4-11, 4 h, Table 7, MV4:11 (AML) cells).

For the compound `Cc1noc2c1-c1ccccc1C(c1ccc(C#N)cc1)=N[C@H]2CC(N)=O` [Compound 148], the IC50 in assay [1] (setting [13]), in assay [2] (setting [14]), in assay [4] (setting [8]) and in assay [5] (setting [15]) was under 0.5 µM in each case. Moreover, the “ED50 (mg/kg)” value in assay [3] is “+ (“+” indicates and ED50 of between 10 and 50 mg/kg)”.

Turning to `Cc1noc2c1-c1sc(C)c(C)c1C(c1ccc(C(F)(F)F)cc1)=NC2CC(N)=O` (stereo not shown) [Compound 208], the IC50 in assay [1] (setting [9]), in assay [2] (setting [10]), in assay [4] (setting [11]) and in assay [5] (setting [12]) was under 0.5 µM in each case.

Regarding `COCCNC(=O)C[C@@H]1N=C(c2ccc(Cl)cc2)c2ccccc2-c2c(C)noc21` [Compound 145], the IC50 in assay [1] (setting [13]), in assay [2] (setting [14]), in assay [4] (setting [8]) and in assay [5] (setting [15]) was under 0.5 µM in each case.

Consider `Cc1noc2c1-c1sc(C)c(C)c1C(c1ccc(C#N)cc1)=N[C@H]2[C@@H](C)C(N)=O` [Compound 209, (2R)-2-((6S)-4-(4-cyanophenyl)-2,3,9-trimethyl-6H-isoxazolo[5,4-c]thieno[2,3-e]azepin-6-yl)propanamide], for which the IC50 is under 0.5 µM in assay [1] (setting [9]), 0.5 to 1 µM in assay [2] (setting [10]), under 0.5 µM in assay [4] (setting [11]) and under 0.5 µM in assay [5] (setting [12]).

The values above are taken from US9522920B2, “Bromodomain inhibitors and uses thereof” (Constellation Pharmaceuticals, Inc., priority 2010, dated 2016).
